Results: article PMC9688530, “Development of Ic-ELISA and Colloidal Gold Lateral Flow Immunoassay for the Determination of Cypermethrin in Agricultural Samples” (Biosensors, 2022)
Converted amounts (≈) assume the structure as drawn. “And” between values parts separate entries of the source, which are not always exact repeats. Equal entries are not always repeated.

What was measured:
anti-CYP mAb 6F1G10 = assay: homologous ic-ELISA, hapten 1 coating antigen, mAb 6F1G10; assay type: binding, mouse; conditions: hapten 1 as coating antigen
Method: (§1) The ic-ELISA procedure was executed according to previous studies. Each well of the ELISA plate was coated with 100 μL of coating antigen diluted with carbonate buffer (0.05 mol/L, pH 9.6) at 4 °C overnight. After washing three times with phosphate-buffered saline (PBS, 0.01 mol/L, pH 7.4) containing 1‰ Tween-20, the wells were blocked with 200 μL of 5% skim milk powder in PBS at 37 °C for two hours. After the same washing procedure, 50 μL of CYP standard solution and 50 μL of mAb were pipetted into each well and incubated at 37 °C for one hour. After washing five times, 100 μL per well of 0.5‰ horseradish peroxidase-labeled goat anti-mouse IgG antibody in PBS was added and incubated at 37 °C for one hour. After the wells were washed five times, 100 μL per well of fresh substrate solution (0.1 mg/mL 3,3′,5,5′-tetramethylbenzidine and 0.024‰ H2O2 in 0.1 M citrate acid buffer) was added to react at 37 °C for 15 min. Then, 50 μL per well of 0.2 mol/L H2SO4 was used to stop the reaction, and the absorbances were read at 450 nm with a microplate reader.
(§2) After five immunizations, the anti-serum of five mice was collected to determine the serum titer. All mouse serum had high titers ranging from 1:64,000 to 1:256,000. […] Then, the sensitivity of these monoclonal antibodies was evaluated by homologous ic-ELISA. […] The subtype of mAb 2G7H9 was determined as IgG2b by a kit. […]

[1] = parameters: method as in doi:10.11895/j.issn.0253-3820.160428; conditions: cited from earlier work
monoclonal antibody = test system: monoclonal antibody; parameters: method as in doi:10.1080/09540105.2013.794328; conditions: ic-ELISA based on a monoclonal antibody; cited from earlier work
anti-CYP mAb 1E7D5 = assay: homologous ic-ELISA, hapten 1 coating antigen, mAb 1E7D5; assay type: binding, mouse; conditions: hapten 1 as coating antigen
Method: as §1, §2

antibody against CYP = test system: antibody against CYP; parameters: method as in PMID 26965575; conditions: cited from earlier work
anti-CYP mAb 2G9A8 = assay: homologous ic-ELISA, hapten 1 coating antigen, mAb 2G9A8; assay type: binding, mouse; conditions: hapten 1 as coating antigen
Method: as §1, §2

CC1(C)C(C=C(Cl)Cl)C1C(=O)OC(C#N)c1cccc(Oc2ccccc2)c1 (stereo not drawn) [CYP, Cypermethrin]
IC50 (anti-CYP mAb 6F1G10): 0.575 µg/mL (≈ 1.38 µM) | sensitivity [1]: 5000 ng/mL | IC50 (monoclonal antibody): 0.0017 µg/mL (≈ 0.00408 µM) | IC50 (anti-CYP mAb 1E7D5): 0.314 µg/mL (≈ 0.754 µM) | IC50 (antibody against CYP): 0.00259 µg/mL and 0.0026 µg/mL | IC50 (anti-CYP mAb 2G9A8): 0.176 µg/mL (≈ 0.423 µM)
